From patent US4889857A, “Quinolonecarboxylic acid compounds and pharmaceutical use thereof” (Yoshitomi Pharmaceutical Industries, Ltd., priority 1987, dated 1989)
Values after ≈ are worked out from the molar mass of the structure shown.

Columns and labels:
[1] = system: Staphylococcus aureus FDA 209P*; test: Antibacterial activity in vitro (MIC), horse blood medium; format: cell-based; conditions: FDA209P
Method: (§1) The antibacterial activities in vitro (minimum inhibitory concentration, MIC, μg/ml) of the test compounds were measured according to the standard method of the Japanese Chemotherapy Society (Chemotherapy, Vol. 23, p.1126, 1974).
(§2) (Inoculum size: 10^6 cells/ml, Organisms with asterisk (*) were
(§3) cultivated in a 10% horse bloodadded medium.)

[2] = system: Pseudomonas putida IFO 12996; test: Antibacterial activity in vitro (MIC); format: cell-based; conditions: IFO12996
Method: as §1, §2, §3

[3] = system: Streptococcus viridans America; test: Antibacterial activity in vitro (MIC); format: cell-based
Method: as §1, §2, §3

[4] = system: Staphylococcus aureus FDA 209P; test: Antibacterial activity in vitro (MIC); format: cell-based; conditions: FDA209P
Method: as §1, §2, §3

[5] = system: Acinetobacter calcoaceticus ATCC 13006; test: Antibacterial activity in vitro (MIC); format: cell-based; conditions: ATCC13006
Method: as §1, §2, §3

Escherichia coli T-7 = test: Antibacterial activity in vitro (MIC); format: cell-based; conditions: T7, inoculum 10^6 cells/ml
Method: as §1, §2, §3

[6] = system: Escherichia coli NIHJ JC-2; test: Antibacterial activity in vitro (MIC); format: cell-based; conditions: NIHJJC2
Method: as §1, §2, §3

[7] = system: Proteus mirabilis IFO 3849; test: Antibacterial activity in vitro (MIC); format: cell-based; conditions: IFO3849
Method: as §1, §2, §3

Escherichia coli O-111 = test: Antibacterial activity in vitro (MIC); format: cell-based; conditions: O111, inoculum 10^6 cells/ml
Method: as §1, §2, §3

[8] = system: Pediococcus damnosus IFO 3895; test: Antibacterial activity in vitro (MIC); format: cell-based; conditions: IFO3895
Method: as §1, §2, §3

[9] = system: Pseudomonas aeruginosa IFO 12582; test: Antibacterial activity in vitro (MIC); format: cell-based; conditions: IFO12582
Method: as §1, §2, §3

Shigella flexneri EW-10 = test: Antibacterial activity in vitro (MIC); format: cell-based; conditions: EW10, inoculum 10^6 cells/ml
Method: as §1, §2, §3

Shigella sonnei EW-33 = test: Antibacterial activity in vitro (MIC); format: cell-based; conditions: EW33, inoculum 10^6 cells/ml
Method: as §1, §2, §3

[10] = system: Staphylococcus epidermidis ATCC 12228; test: Antibacterial activity in vitro (MIC); format: cell-based; conditions: ATCC12228
Method: as §1, §2, §3

[11] = system: Citrobacter freundii IFO 12681; test: Antibacterial activity in vitro (MIC); format: cell-based; conditions: IFO12681, inoculum 10^6 cells/ml
Method: as §1, §2, §3

[12] = system: Morganella morganii IFO 3168; test: Antibacterial activity in vitro (MIC); format: cell-based; conditions: IFO3168
Method: as §1, §2, §3

[13] = system: Proteus vulgaris IFO 3988; test: Antibacterial activity in vitro (MIC); format: cell-based; conditions: IFO3988
Method: as §1, §2, §3

[14] = system: Pseudomonas aeruginosa U-31; test: Antibacterial activity in vitro (MIC); format: cell-based; conditions: U31
Method: as §1, §2, §3

[15] = system: Corynebacterium diphtheriae Tronto; test: Antibacterial activity in vitro (MIC); format: cell-based
Method: as §1, §2, §3

[16] = system: Streptococcus sp. IFO 3535; test: Antibacterial activity in vitro (MIC); format: cell-based; conditions: IFO3535
Method: as §1, §2, §3

[17] = system: Xanthomonas maltophilia IFO 12690; test: Antibacterial activity in vitro (MIC); format: cell-based; conditions: Stenotrophomonas maltophilia, IFO12690; inoculum 10^6 cells/ml
Method: as §1, §2, §3

[18] = system: Shigella typhosa Boxhill-58; test: Antibacterial activity in vitro (MIC); format: cell-based
Method: as §1, §2, §3

Klebsiella pneumoniae DT = test: Antibacterial activity in vitro (MIC); format: cell-based
Method: as §1, §2, §3

[19] = system: Serratia marcescens IFO 12648; test: Antibacterial activity in vitro (MIC); format: cell-based; conditions: IFO12648
Method: as §1, §2, §3

[20] = system: Bacillus subtilis PCT 219; test: Antibacterial activity in vitro (MIC); format: cell-based; conditions: PCT219
Method: as §1, §2, §3

[21] = system: Staphylococcus aureus 1840; test: Antibacterial activity in vitro (MIC); format: cell-based
Method: as §1, §2, §3

[22] = system: Streptococcus lactis IFO 12546; test: Antibacterial activity in vitro (MIC); format: cell-based; conditions: Lactococcus lactis, IFO12546
Method: as §1, §2, §3

S. aureus Smith [23] = test: MIC of the infecting organism (Experiment 2); format: cell-based; conditions: Staphylococcus aureus
Method: (§4) Experimental infection was caused by inoculating male mice intraperitoneally with each organism. Each of the test compounds was administered orally to the mice, one hour after the inoculation. The therapeutic effect of each compounds was judged by using a 50% effective dose (ED50) from the survival rate on day 7 after injection by the Probit method as described in Proc. Soc. Exp. Biol. Med., Vol. 57, p.261-264, 1944. The Minimum inhibitory concentrations (MIC) were also measured.

E. coli KC-14 [24] = test: MIC of the infecting organism (Experiment 2); format: cell-based; conditions: Escherichia coli, KC14
Method: as §4

S. aureus Smith [25] = test: Protective effect against experimental infection in mice; format: in vivo; conditions: oral, 1 h after i.p. inoculation of 2.13 × 10^6 cells/mouse [792 LD50] with mucin; survival day 7; 95% confidence limit
Method: as §4
(§5) (The overnight cultures of test organisms with an asterisk (*) were
(§6) diluted with 50% mucin and 0.5 ml of each was injected intraperitoneally
(§7) into mice. A double asterisk (**) means a 95% confidence limit. MRSA mean
(§8) methycillinresistant Staphylococcus aureus.)

S. pyogenes C-203 = test: as above; format: in vivo; conditions: oral, 1 h after i.p. inoculation of 4.42 × 10^4 cells/mouse [680 LD50]; survival day 7; 95% confidence limit
Method: as §4, §5, §6, §7, §8

S. pneumoniae Type III = test: as above; format: in vivo; conditions: oral, 1 h after i.p. inoculation of 6.0 × 10^2 cells/mouse [12 LD50]; survival day 7; 95% confidence limit
Method: as §4, §5, §6, §7, §8

E. coli KC-14 [26] = test: as above; format: in vivo; conditions: oral, 1 h after i.p. inoculation of 5.75 × 10^4 cells/mouse [488 LD50] with mucin; survival day 7; 95% confidence limit
Method: as §4, §5, §6, §7, §8

S. aureus 109(MRSA) = test: as above; format: in vivo; conditions: oral, 1 h after i.p. inoculation of 4.93 × 10^8 cells/mouse [5.7 LD50] with mucin; survival day 7; 95% confidence limit
Method: as §4, §5, §6, §7, §8

## O=C(O)c1cn(C2CC2)c2cc(N3CCNCC3)c(F)cc2c1=O [CPFX, 1-cyclopropyl-6-fluoro-1,4-dihydro-7-(1-piperazinyl)-4-oxoquinoline-3-carboxylic acid]
[1]
  MIC: 0.2 µg/mL (≈ 0.604 µM)
[2]
  MIC: 0.1 µg/mL (≈ 0.302 µM)
[3]
  MIC: 3.13 µg/mL (≈ 9.45 µM)
[4]
  MIC: 0.2 µg/mL (≈ 0.604 µM)
[5]
  MIC: 0.1 µg/mL (≈ 0.302 µM)
Escherichia coli T-7
  MIC: 0.012 µg/mL (≈ 0.0362 µM)
[6]
  MIC: 0.025 µg/mL (≈ 0.0754 µM)
[7]
  MIC: 0.1 µg/mL (≈ 0.302 µM)
Escherichia coli O-111
  MIC: 0.012 µg/mL (≈ 0.0362 µM)
[8]
  MIC: 0.1 µg/mL (≈ 0.302 µM)
[9]
  MIC: 0.2 µg/mL (≈ 0.604 µM)
Shigella flexneri EW-10
  MIC: 0.012 µg/mL (≈ 0.0362 µM)
Shigella sonnei EW-33
  MIC: ≤ 0.006 µg/mL
[10]
  MIC: 0.2 µg/mL (≈ 0.604 µM)
[11]
  MIC: 0.012 µg/mL (≈ 0.0362 µM)
[12]
  MIC: 0.025 µg/mL (≈ 0.0754 µM)
[13]
  MIC: 0.05 µg/mL (≈ 0.151 µM)
[14]
  MIC: 0.2 µg/mL (≈ 0.604 µM)
[15]
  MIC: 0.1 µg/mL (≈ 0.302 µM)
[16]
  MIC: 3.13 µg/mL (≈ 9.45 µM)
[17]
  MIC: 0.05 µg/mL (≈ 0.151 µM)
[18]
  MIC: ≤ 0.006 µg/mL
Klebsiella pneumoniae DT
  MIC: 0.025 µg/mL (≈ 0.0754 µM)
[19]
  MIC: 0.1 µg/mL (≈ 0.302 µM)
[20]
  MIC: 0.025 µg/mL (≈ 0.0754 µM)
[21]
  MIC: 3.13 µg/mL (≈ 9.45 µM)
[22]
  MIC: 3.13 µg/mL (≈ 9.45 µM)
S. aureus Smith [23]
  MIC: 0.1 µg/mL
E. coli KC-14 [24]
  MIC: ≤ 0.006 µg/mL
S. aureus Smith [25]
  ED50: 0.325(0.232-0.453) mg/mouse
S. pyogenes C-203
  ED50: > 2 mg/mouse
S. pneumoniae Type III
  ED50: > 2 mg/mouse
E. coli KC-14 [26]
  ED50: 0.011(0.008-0.015) mg/mouse
S. aureus 109(MRSA)
  ED50: 1.163(0.460-1.660) mg/mouse
